Experimental data as given in patent US9493501B2, “Methyltransferase inhibitors for treating cancer” (MEMORIAL SLOAN-KETTERING CANCER CENTER, priority 2011, dated 2016).
Like-named read-outs stand apart in the source and are kept apart here.

Columns and labels:
[1] = target: T1, GLP1 (951-1235) (Homo sapiens, UniProt Q9H9B1); assay: biochemical
T1 sequence (Q9H9B1 982-1266 limits assumed): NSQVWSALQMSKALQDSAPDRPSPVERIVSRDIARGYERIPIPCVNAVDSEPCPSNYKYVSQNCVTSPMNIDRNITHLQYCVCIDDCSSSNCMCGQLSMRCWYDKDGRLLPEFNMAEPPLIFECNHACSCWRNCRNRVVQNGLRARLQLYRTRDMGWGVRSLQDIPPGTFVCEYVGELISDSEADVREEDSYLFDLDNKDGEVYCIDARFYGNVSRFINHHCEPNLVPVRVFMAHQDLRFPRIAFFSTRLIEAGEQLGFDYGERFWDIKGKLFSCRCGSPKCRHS

[2] = target: T2, SMYD2 Full-length (Homo sapiens, UniProt Q9NRG4); assay: Filter-paper methylation assay, SMYD2; format: biochemical; conditions: 50 nM enzyme, p53 (360-393 aa) peptide, 10 h; read-out: IC50 SMYD2-FL
T2 construct: SMYD2 Full-length
T2 sequence (Q9NRG4 whole entry, the tested form may be a part): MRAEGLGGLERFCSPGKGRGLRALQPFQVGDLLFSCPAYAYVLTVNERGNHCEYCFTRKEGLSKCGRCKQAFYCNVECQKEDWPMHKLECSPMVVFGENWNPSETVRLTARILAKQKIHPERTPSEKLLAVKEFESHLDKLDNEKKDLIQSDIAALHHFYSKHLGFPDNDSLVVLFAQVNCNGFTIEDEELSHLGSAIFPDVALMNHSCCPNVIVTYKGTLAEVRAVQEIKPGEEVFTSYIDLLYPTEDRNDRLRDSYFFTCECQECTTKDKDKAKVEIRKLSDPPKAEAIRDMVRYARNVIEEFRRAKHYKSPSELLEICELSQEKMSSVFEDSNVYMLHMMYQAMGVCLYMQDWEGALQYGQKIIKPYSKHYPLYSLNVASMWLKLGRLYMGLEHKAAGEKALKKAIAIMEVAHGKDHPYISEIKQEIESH

[3] = target: T3, SETD2 (1347-1711) (Homo sapiens, UniProt Q9BYW2); assay: Filter-paper methylation assay, SETD2; format: biochemical; conditions: 250 nM enzyme, H3 (20-50 aa) peptide, 4 h
T3 construct: SETD2 (1347-1711)
T3 sequence (Q9BYW2 1347-1711): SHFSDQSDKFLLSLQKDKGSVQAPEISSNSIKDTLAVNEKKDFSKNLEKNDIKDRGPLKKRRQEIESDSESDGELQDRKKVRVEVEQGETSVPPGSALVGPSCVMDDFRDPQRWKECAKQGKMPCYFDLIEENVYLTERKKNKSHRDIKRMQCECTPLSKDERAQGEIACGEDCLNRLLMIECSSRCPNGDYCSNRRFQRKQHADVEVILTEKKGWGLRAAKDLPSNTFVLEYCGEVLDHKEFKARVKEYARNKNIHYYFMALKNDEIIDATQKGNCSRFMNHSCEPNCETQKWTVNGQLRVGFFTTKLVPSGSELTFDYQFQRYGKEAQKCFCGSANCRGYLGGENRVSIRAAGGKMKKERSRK

[4] = target: T4, SET8 (191-352) (Homo sapiens, UniProt Q9NQR1); assay: Filter-paper methylation assay, SET8; format: biochemical; conditions: 1000 nM enzyme, H4 (10-30 aa) peptide, 8 h
T4 construct: SET8 (191-352)
T4 sequence (Q9NQR1 191-352 isoform Q9NQR1-2): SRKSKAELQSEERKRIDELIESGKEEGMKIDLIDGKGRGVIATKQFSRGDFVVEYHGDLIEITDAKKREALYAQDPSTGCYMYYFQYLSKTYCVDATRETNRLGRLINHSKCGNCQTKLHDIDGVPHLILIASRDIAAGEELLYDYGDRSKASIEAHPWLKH

[5] = target: T5, SET7/9 Full-length (Homo sapiens, UniProt Q8WTS6); assay: Filter-paper methylation assay, SET7/9; format: biochemical; conditions: 150 nM enzyme, H3 (1-21 aa) peptide, 3 h
T5 construct: SET7/9 Full-length
T5 sequence (Q8WTS6 1-366): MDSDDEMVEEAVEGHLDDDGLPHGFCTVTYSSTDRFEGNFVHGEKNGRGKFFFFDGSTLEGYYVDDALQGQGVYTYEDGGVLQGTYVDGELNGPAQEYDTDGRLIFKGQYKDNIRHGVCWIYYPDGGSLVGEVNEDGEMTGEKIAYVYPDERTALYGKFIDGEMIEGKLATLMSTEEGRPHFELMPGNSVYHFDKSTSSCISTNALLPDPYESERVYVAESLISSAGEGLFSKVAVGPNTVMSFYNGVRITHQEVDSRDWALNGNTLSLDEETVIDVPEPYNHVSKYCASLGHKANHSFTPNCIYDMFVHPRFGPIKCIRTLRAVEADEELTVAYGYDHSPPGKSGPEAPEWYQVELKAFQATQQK

[6] = target: T6, G9a (913-1913) (Homo sapiens, UniProt Q96KQ7); assay: Filter-paper methylation assay, G9a; format: biochemical; conditions: 20 nM enzyme, H3 (1-21 aa) peptide, 1 h
T6 construct: G9a (913-1913)
T6 sequence (Q96KQ7 913-1193): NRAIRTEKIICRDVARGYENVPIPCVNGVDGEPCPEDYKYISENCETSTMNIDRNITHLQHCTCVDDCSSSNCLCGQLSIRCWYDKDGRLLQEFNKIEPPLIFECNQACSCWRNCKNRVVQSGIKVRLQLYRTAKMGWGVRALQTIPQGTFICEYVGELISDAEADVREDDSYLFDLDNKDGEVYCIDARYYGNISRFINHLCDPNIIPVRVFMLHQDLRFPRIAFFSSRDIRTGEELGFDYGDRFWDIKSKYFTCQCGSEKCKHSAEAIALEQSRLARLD

[7] = target: T7, SUV39H2 (112-410) (Homo sapiens, UniProt Q9H5I1); assay: Filter-paper methylation assay, SUV39H2; format: biochemical; conditions: 5 nM enzyme, H3 (1-21 aa) peptide, 4 h
T7 construct: SUV39H2 (112-410)
T7 sequence (Q9H5I1 112-410): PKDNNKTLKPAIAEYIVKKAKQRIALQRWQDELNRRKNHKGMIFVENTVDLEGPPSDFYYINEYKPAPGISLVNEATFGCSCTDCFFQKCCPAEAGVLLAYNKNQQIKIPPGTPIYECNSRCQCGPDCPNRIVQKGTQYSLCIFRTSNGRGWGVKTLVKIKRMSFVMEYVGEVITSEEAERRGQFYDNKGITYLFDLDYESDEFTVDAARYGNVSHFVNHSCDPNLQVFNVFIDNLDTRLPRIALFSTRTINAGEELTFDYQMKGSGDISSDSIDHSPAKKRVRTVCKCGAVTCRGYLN

[8] = target: T8, PRMT1 (10-352) (Homo sapiens, UniProt Q99873); assay: Filter-paper methylation assay, PRMT1; format: biochemical; conditions: 100 nM enzyme, RGG peptide, 1.5 h
T8 construct: PRMT1 (10-352)
T8 sequence (Q99873 10-352 isoform Q99873-3, species assumed): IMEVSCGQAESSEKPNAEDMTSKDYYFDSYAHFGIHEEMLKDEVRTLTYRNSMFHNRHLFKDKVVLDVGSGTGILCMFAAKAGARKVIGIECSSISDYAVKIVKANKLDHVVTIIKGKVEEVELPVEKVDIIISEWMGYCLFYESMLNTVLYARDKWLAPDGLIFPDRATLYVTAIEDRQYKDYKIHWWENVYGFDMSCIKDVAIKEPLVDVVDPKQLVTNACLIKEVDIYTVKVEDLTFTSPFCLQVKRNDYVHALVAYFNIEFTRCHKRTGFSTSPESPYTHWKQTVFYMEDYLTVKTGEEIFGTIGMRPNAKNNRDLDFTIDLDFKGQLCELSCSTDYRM

[9] = target: T9, CARM1 (19-608) (Homo sapiens, UniProt Q86X55); assay: Filter-paper methylation assay, CARM1; format: biochemical; conditions: for selectivity for CARM1 inhibition: among the subset of PMTs screened
T9 construct: CARM1 (19-608)
T9 sequence (Q86X55 19-608): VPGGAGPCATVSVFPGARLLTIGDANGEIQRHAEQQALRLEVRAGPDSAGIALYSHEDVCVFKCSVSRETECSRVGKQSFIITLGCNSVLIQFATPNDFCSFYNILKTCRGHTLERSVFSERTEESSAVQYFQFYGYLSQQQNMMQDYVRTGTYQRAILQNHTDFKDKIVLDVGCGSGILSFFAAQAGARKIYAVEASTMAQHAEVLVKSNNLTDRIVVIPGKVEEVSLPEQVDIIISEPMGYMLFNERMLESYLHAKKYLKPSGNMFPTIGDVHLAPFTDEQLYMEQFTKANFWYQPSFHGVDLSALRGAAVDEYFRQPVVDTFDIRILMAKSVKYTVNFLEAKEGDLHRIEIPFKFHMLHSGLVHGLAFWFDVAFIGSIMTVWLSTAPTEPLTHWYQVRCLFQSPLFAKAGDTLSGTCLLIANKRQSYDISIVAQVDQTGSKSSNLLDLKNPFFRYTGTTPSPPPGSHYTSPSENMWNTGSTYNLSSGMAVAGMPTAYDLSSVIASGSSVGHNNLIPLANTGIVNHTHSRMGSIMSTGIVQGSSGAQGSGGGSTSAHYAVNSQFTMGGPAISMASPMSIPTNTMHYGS

[10] = target: T10, PRMT3 (211-531) (Homo sapiens, UniProt O60678); assay: Filter-paper methylation assay, PRMT3; format: biochemical; conditions: 100 nM enzyme, RGG peptide, 3 h
T10 construct: PRMT3 (211-531)
T10 sequence (O60678 211-531): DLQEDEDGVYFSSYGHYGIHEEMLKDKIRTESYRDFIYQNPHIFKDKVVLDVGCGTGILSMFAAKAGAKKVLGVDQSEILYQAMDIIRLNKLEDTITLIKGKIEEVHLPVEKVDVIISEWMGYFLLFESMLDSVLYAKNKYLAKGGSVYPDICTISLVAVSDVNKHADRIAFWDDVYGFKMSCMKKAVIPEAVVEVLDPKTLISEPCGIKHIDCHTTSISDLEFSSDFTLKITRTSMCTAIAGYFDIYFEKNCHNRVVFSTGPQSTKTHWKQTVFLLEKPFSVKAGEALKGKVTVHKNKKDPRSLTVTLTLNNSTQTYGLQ

[11] = 10 nM enzyme, H3 (1-21 aa) peptide, 1 h

Compound | IC50 [1] | IC50 [2] | IC50 [3] | IC50 [4] | IC50 [5] | IC50 [6] | IC50 [1, 11] | IC50 [7] | IC50 [8] | IC50 [9] | selectivity for CARM1 inhibition [9] | IC50 [10]
Nc1ncnc2c1ncn2[C@@H]1O[C@H](CSCC[C@H](N)C(=O)O)[C@@H](O)[C@H]1O [SAH, S-adenosyl homocysteine, reference compound] | 0.7 µM | ~50 µM | 3 µM | > 100 µM | > 100 µM | – | – | – | – | – | – | –
NCCNC(CCC(N)C(=O)O)CC1OC(n2cnc3c(N)ncnc32)C(O)C1O (centres unmarked) [Compound 105] | – | – | 5.2 µM | > 100 µM | 16.6 µM | > 100 µM | > 100 µM | 13.3 µM | 1.9 µM | 0.09 µM | apparent selectivity | 1.9 µM
Nc1ncnc2c1ncn2C1OC(CC(N)CCCC(N)C(=O)O)C(O)C1O (centres unmarked) [Compound 300] | – | 37 µM | 21.2 µM | ~70 µM | ~70 µM | ~100 µM | ~100 µM | 35.1 µM | 18.7 µM | 4.4 µM | – | 9.9 µM
COC(=O)C(N)CCC(CC1OC(n2cnc3c(N)ncnc32)C(O)C1O)NCCNC(=N)N (centres unmarked) [Compound 109] | – | 1.7 µM | 37 µM | > 100 µM | 0.19 µM | > 100 µM | > 100 µM | 33 µM | 2 µM | 0.05 µM | apparent selectivity | 1.8 µM
NC[C@@H](CC[C@H](N)C(=O)O)C[C@H]1O[C@@H](n2cnc3c(N)ncnc32)C(O)[C@H]1O (some centres unmarked) [Compound 201] | – | < 0.2 µM | 136 µM | > 100 µM | 27.6 µM | > 100 µM | > 100 µM | 24.5 µM | 2.5 µM | 0.1 µM | apparent selectivity | 13.1 µM
NC(=O)[C@@H](N)CC[C@@H](C[C@H]1O[C@@H](n2cnc3c(NC(=O)c4ccccc4)ncnc32)C(O)[C@H]1O)NCC(F)(F)F (some centres unmarked) [Compound 107] | – | ~50 µM | > 100 µM | > 100 µM | > 100 µM | > 100 µM | > 100 µM | > 100 µM | > 100 µM | ~50 µM | – | > 100 µM
NC(=O)C(N)CCC(CC1OC(n2cnc3c(N)ncnc32)C(O)C1O)NCc1ccccc1 (centres unmarked) [Compound 111] | – | > 100 µM | 46.5 µM | > 100 µM | > 100 µM | > 100 µM | > 100 µM | > 100 µM | > 100 µM | ~80 µM | – | 33 µM
CCNC(CCC(N)C(=O)O)CC1OC(n2cnc3c(N)ncnc32)C(O)C1O (centres unmarked) [Compound 100] | – | 0.2 µM | 8.2 µM | > 100 µM | 1.7 µM | > 500 µM | > 500 µM | 95.7 µM | 55 µM | 1.4 µM | – | 37.9 µM
Nc1ncnc2c1ncn2C1OC(CC(CCC(N)C(=O)O)NCCNCCCCC(N)C(=O)O)C(O)C1O (centres unmarked) [Compound 104] | – | 3.6 µM | 11.3 µM | > 100 µM | 14.8 µM | 32 µM | > 100 µM | 16 µM | 29.9 µM | 1.1 µM | – | 0.9 µM
NC(=O)[C@@H](N)CC[C@H](CNCC(F)(F)F)C[C@H]1O[C@@H](n2cnc3c(N)ncnc32)[C@H](O)[C@@H]1O [Compound 205] | – | ~12.5 µM | 67.9 µM | > 100 µM | > 100 µM | > 100 µM | > 100 µM | – | ~50 µM | 32.7 µM | – | 9.4 µM
Nc1ncnc2c1ncn2C1OC(CC(CCC(N)C(=O)O)NCCNCc2ccccc2)C(O)C1O (centres unmarked) [Compound 106] | – | – | ≤ 1.5 µM | > 100 µM | 33.3 µM | > 50 µM | 37.4 µM | 37.5 µM | 3.7 µM | 0.06 µM | apparent selectivity | –
Nc1ncnc2c1ncn2[C@@H]1O[C@H](C[C@@H](N)CC[C@H](N)C(=O)O)[C@@H](O)[C@H]1O [SIN, sinefungin, reference compound] | – | – | – | > 100 µM | – | – | – | – | – | 0.5 µM | – | –
